US20130225508A1, “PEPTIDE CAPABLE OF BINDING TO IMMUNOGLOBULIN” (priority 2010, published 2013)
No end group written: not given here.

Legend:
Arthus reaction = test: Type III allergic (Arthus) reaction-induced rat model, dye leakage; assay type: in vivo, Slc:Wistar rats; settings: 50 mg/kg intraperitoneal; mean±SD
Experimental: Using forty-two 7-week-old male Slc:Wistar rats, examinations were made on test substance VII-2, with each of intraperitoneal administration and intravenous administration into tail vain. Acclimation was carried out by giving normal solid chow CRF-1 for a period of 6 days or longer. On the day prior to administration, the back of each animal was shaved. On the day of administration, a mixed solution of egg-white Ovalbumin (MP Biomedicals) (hereinafter referred to as “OVA”) and Evans blue dye was administered into the tail vein. […] The amount of dye leakage was quantified by measuring absorbance for the Evans blue dye with a spectrophotometer and using a calibration curve. […]
Several cuttings were made in the skin strips that had been punched out with a punch. […] The amount of dye leakage was calculated from a calibration curve of known amounts of the dye.
The mean value (mean)±standard deviation (SD) for each of the groups was calculated with respect to body-weight measurements and amounts of dye leakage. For amounts of dye leakage, the value for each of the animals was determined by subtracting the mean of the values obtained for the two sites of PBS administration from the mean of the values obtained for the two sites of administration of the anti-OVA solution. […]

[1] = test system: adjuvant-induced arthritis; test: Adjuvant arthritis rat model; assay type: in vivo, Lewis/CrlCrlj rats; parameters: key to Redness scores (left hind-limb) / Redness scores (right hind-limb): 0 = no redness, 4 = severe redness; key to Scores of swelling in the instep (left hind-limb) / Scores of swelling in the instep (right hind-limb): 0 = no swelling, 4 = severe swelling; key to Scores of swelling in knuckle joints (left hind-limb) / Scores of swelling in knuckle joints (right hind-limb): 0 = no swelling, 4 = swelling of all the digits; settings: 10 mg/kg oral from day 10
Source text: Male Lewis/CrlCrlj (SPF) rats were used to investigate the arthritis suppressing effect of a peptide of the present invention on adjuvant-induced arthritis. Forty-five rats were purchased from Charles River Laboratories Japan, Inc., and fed normal chow and allowed to acclimate for 7 days before used (the range of body weights was from 193.3 to 218.3 g at the beginning of use).
In an agate motor, dead tubercle bacilli (Mycobacterium butyricum; Lot No. 0260570, Difco) were pulverized. Then, liquid paraffin was added in small amounts to spread the pulverized bacilli well, so as to allow them to be emulsified at 1.0 mg/mL. The resultant emulsion was used after verification to ensure that the pulverized bacilli had been allowed to be finely emulsified, using an NM MICRONIZER (Nippon Seiki Co., Ltd.).
A right hind-limb of the respective rats was exposed, and 100 μL of the emulsion was intradermally injected once into a footpad of the right hind-limb using a 25G-needle attached syringe, to cause arthritis (day 0).
Each of the groups was comprised of 5 animals.
Arthritis was evaluated only for the hind-limbs, based on the criteria described below:
Score 0: no swelling Score 1: swelling of not more than two digits Score 2: swelling of three digits Score 3: swelling of four digits Score 4: swelling of all the digits
Score 0: no swelling Score 1: mild swelling Score 2: modest swelling Score 3: rather severe swelling Score 4: severe swelling
Score 0: no redness Score 1: mild redness Score 2: modest redness Score 3: rather severe redness Score 4: severe redness (iii) Measurement of Foot Volumes of Left And Right Hind-Limbs
Measurement was performed using a plethysmometer (UNICOM TK105). The increasing rate foot volume (percentage of paw swelling, paw swelling %) was calculated by the following formula:
Percent paw swelling (%)=[(Vt−Vo)/Vo]×100
In addition, in these examinations, the percent change of edema relative to day 10 post-adjuvant was calculated, in order to assess the effect of treatment with the test substances.
Data are expressed by mean±standard error. Since the uniformity of variance was not verified in testing between the negative and the positive control groups, testing for significant difference was performed by Aspin-Welch t-test. Since the uniformity of variance was not verified in testing for significant differences of the respective test-substance administered groups relative to the positive control group, assessment was performed by Dunnett's multiple comparison test after Kruskal-Wallis testing, using non-parametric procedures. Differences were considered to be statistically significant at p values of less than 0.05.

TNF-α in plasma = TNF-α in plasma of adjuvant arthritis rats (ELISA); assay type: in vivo, rat; settings: day 21 post-adjuvant; 10 mg/kg oral from day 10
Experimental: (§1) TNF-α and IL-1β in plasma were measured in a double-point method using the TNF-α ELISA kit (Lbis® TNF-α-rat) and the IL-1β ELISA kit (Quantikine® Rat IL-1β/IL-1F2).
(§2) On day 21 post-adjuvant, the animals were subjected to autopsy, and plasma was prepared to measure IL-1β and TIN-α concentrations in plasma. In all the groups for which measurements were made, the concentration of TNF-α was below the detection limit (8 pg/mL).

IL-1β in plasma = IL-1β in plasma of adjuvant arthritis rats (ELISA); assay type: in vivo, rat; settings: day 21 post-adjuvant; 10 mg/kg oral from day 10
Experimental: as §1, §2

[2] = Evaluation of solubility of peptides in water (PBS or physiological saline); assay type: physicochemical; settings: solvent PBS or physiological saline
Experimental: Water solubility was evaluated for peptides in which various kinds of hydrophilic amino acid were substituted for the 4th and 5th amino acids which were verified in (1) to be allowed to be mutated. The peptides listed in Table 2 were synthesized by GL Biochem (Shanghai). Among the peptides listed in Table 2, peptides SP1 to SP7 are peptides in which various kinds of hydrophilic amino acid were substituted for the 4th and 5th amino acids.
In Table 3, the circle symbol is assigned to a peptide which was dissolved in a solvent (PBS or physiological saline) at a concentration of 10 mg/ml or higher, and the cross symbol is assigned to a peptide which was not dissolved at a concentration of 1 mg/ml. […] In the subsequent experiments, the peptides in which the 4th and 5th amino acids were substituted by hydrophilic amino acids were used.

Compound: C[C@]12CCC(=O)C=C1CC[C@@H]1[C@@H]2[C@@H](O)C[C@@]2(C)[C@H]1CC[C@]2(O)C(=O)CO [Hydrocortisone]
- amount of dye leakage (Evans blue) (Arthus reaction): 5.665±0.674 μg/animal

Compound: Cc1oncc1C(=O)Nc1ccc(C(F)(F)F)cc1 [Reflumide]
- Percent increase in foot volume relative to pre-adjuvant (left hind-limb) ([1]; Day 0 post-adjuvant): 0.00 ± 0.0%
- Percent increase in foot volume relative to pre-adjuvant (right hind-limb) ([1]; Day 0 post-adjuvant): 0.00 ± 0.0%
- Redness scores (left hind-limb) ([1]; Day 0 post-adjuvant): 0.0 ± 0.0
- Redness scores (right hind-limb) ([1]; Day 0 post-adjuvant): 0.0 ± 0.0
- Scores of swelling in knuckle joints (left hind-limb) ([1]; Day 0 post-adjuvant): 0.0 ± 0.0
- Scores of swelling in knuckle joints (right hind-limb) ([1]; Day 0 post-adjuvant): 0.0 ± 0.0
- Scores of swelling in the instep (left hind-limb) ([1]; Day 0 post-adjuvant): 0.0 ± 0.0
- Scores of swelling in the instep (right hind-limb) ([1]; Day 0 post-adjuvant): 0.0 ± 0.0
- Total scores (left hind-limb) ([1]; Day 0 post-adjuvant): 0.0 ± 0.0
- Total scores (right hind-limb) ([1]; Day 0 post-adjuvant): 0.0 ± 0.0
- Percent increase in foot volume relative to pre-adjuvant (left hind-limb) ([1]; Day 3 post-adjuvant): 13.28 ± 0.4%
- Percent increase in foot volume relative to pre-adjuvant (right hind-limb) ([1]; Day 3 post-adjuvant): 13.33 ± 0.4%
- Redness scores (left hind-limb) ([1]; Day 3 post-adjuvant): 0.0 ± 0.0
- Redness scores (right hind-limb) ([1]; Day 3 post-adjuvant): 0.0 ± 0.0
- Scores of swelling in knuckle joints (left hind-limb) ([1]; Day 3 post-adjuvant): 0.0 ± 0.0
- Scores of swelling in knuckle joints (right hind-limb) ([1]; Day 3 post-adjuvant): 0.0 ± 0.0
- Scores of swelling in the instep (left hind-limb) ([1]; Day 3 post-adjuvant): 0.0 ± 0.0
- Scores of swelling in the instep (right hind-limb) ([1]; Day 3 post-adjuvant): 0.0 ± 0.0
- Total scores (left hind-limb) ([1]; Day 3 post-adjuvant): 0.0 ± 0.0
- Total scores (right hind-limb) ([1]; Day 3 post-adjuvant): 0.0 ± 0.0
- Percent increase in foot volume relative to pre-adjuvant (left hind-limb) ([1]; Day 7 post-adjuvant): 18.56 ± 3.3%
- Percent increase in foot volume relative to pre-adjuvant (right hind-limb) ([1]; Day 7 post-adjuvant): 26.75 ± 1.4%
- Redness scores (left hind-limb) ([1]; Day 7 post-adjuvant): 0.4 ± 0.2
- Redness scores (right hind-limb) ([1]; Day 7 post-adjuvant): 0.6 ± 0.2
- Scores of swelling in knuckle joints (left hind-limb) ([1]; Day 7 post-adjuvant): 0.4 ± 0.2
- Scores of swelling in knuckle joints (right hind-limb) ([1]; Day 7 post-adjuvant): 0.2 ± 0.2
- Scores of swelling in the instep (left hind-limb) ([1]; Day 7 post-adjuvant): 0.4 ± 0.2
- Scores of swelling in the instep (right hind-limb) ([1]; Day 7 post-adjuvant): 1.0 ± 0.0
- Total scores (left hind-limb) ([1]; Day 7 post-adjuvant): 1.2 ± 1.6
- Total scores (right hind-limb) ([1]; Day 7 post-adjuvant): 1.8 ± 0.5
- Percent increase in foot volume relative to pre-adjuvant (left hind-limb) ([1]; Day 10 post-adjuvant): 22.94 ± 3.6%
- Percent increase in foot volume relative to pre-adjuvant (right hind-limb) ([1]; Day 10 post-adjuvant): 49.75 ± 15.8%
- Redness scores (left hind-limb) ([1]; Day 10 post-adjuvant): 0.8 ± 0.4
- Redness scores (right hind-limb) ([1]; Day 10 post-adjuvant): 1.2 ± 0.2
- Scores of swelling in knuckle joints (left hind-limb) ([1]; Day 10 post-adjuvant): 1.4 ± 0.4
- Scores of swelling in knuckle joints (right hind-limb) ([1]; Day 10 post-adjuvant): 1.6 ± 0.6
- Scores of swelling in the instep (left hind-limb) ([1]; Day 10 post-adjuvant): 0.6 ± 0.4
- Scores of swelling in the instep (right hind-limb) ([1]; Day 10 post-adjuvant): 1.4 ± 0.4
- Total scores (left hind-limb) ([1]; Day 10 post-adjuvant): 2.8 ± 1.4
- Total scores (right hind-limb) ([1]; Day 10 post-adjuvant): 4.2 ± 1.5
- Percent increase in foot volume relative to day 10 post-adjuvant (left hind-limb) ([1]; Day 14 post-adjuvant): −2.2 ± 1.6%
- Percent increase in foot volume relative to day 10 post-adjuvant (right hind-limb) ([1]; Day 14 post-adjuvant): −1.3 ± 2.9^ %
- Percent increase in foot volume relative to pre-adjuvant (left hind-limb) ([1]; Day 14 post-adjuvant): 20.13 ± 3.2%
- Percent increase in foot volume relative to pre-adjuvant (right hind-limb) ([1]; Day 14 post-adjuvant): 46.22 ± 10.7%
- Redness scores (left hind-limb) ([1]; Day 14 post-adjuvant): 0.4 ± 0.2
- Redness scores (right hind-limb) ([1]; Day 14 post-adjuvant): 1.2 ± 0.2
- Scores of swelling in knuckle joints (left hind-limb) ([1]; Day 14 post-adjuvant): 0.6 ± 0.4
- Scores of swelling in knuckle joints (right hind-limb) ([1]; Day 14 post-adjuvant): 1.4 ± 0.4
- Scores of swelling in the instep (left hind-limb) ([1]; Day 14 post-adjuvant): 0.2 ± 0.2
- Scores of swelling in the instep (right hind-limb) ([1]; Day 14 post-adjuvant): 1.2 ± 0.2
- Total scores (left hind-limb) ([1]; Day 14 post-adjuvant): 1.2 ± 1.0
- Total scores (right hind-limb) ([1]; Day 14 post-adjuvant): 3.8 ± 1.0
- Percent increase in foot volume relative to day 10 post-adjuvant (left hind-limb) ([1]; Day 17 post-adjuvant): 1.2 ± 6.3%
- Percent increase in foot volume relative to day 10 post-adjuvant (right hind-limb) ([1]; Day 17 post-adjuvant): −3.4 ± 2.8%
- Percent increase in foot volume relative to pre-adjuvant (left hind-limb) ([1]; Day 17 post-adjuvant): 24.18 ± 7.7%
- Percent increase in foot volume relative to pre-adjuvant (right hind-limb) ([1]; Day 17 post-adjuvant): 43.17 ± 11.2%
- Redness scores (left hind-limb) ([1]; Day 17 post-adjuvant): 0.6 ± 0.6
- Redness scores (right hind-limb) ([1]; Day 17 post-adjuvant): 0.8 ± 0.2
- Scores of swelling in knuckle joints (left hind-limb) ([1]; Day 17 post-adjuvant): 0.6 ± 0.4
- Scores of swelling in knuckle joints (right hind-limb) ([1]; Day 17 post-adjuvant): 0.0 ± 0.0
- Scores of swelling in the instep (left hind-limb) ([1]; Day 17 post-adjuvant): 0.2 ± 0.2
- Scores of swelling in the instep (right hind-limb) ([1]; Day 17 post-adjuvant): 1.2 ± 0.2
- Total scores (left hind-limb) ([1]; Day 17 post-adjuvant): 1.4 ± 1.5
- Total scores (right hind-limb) ([1]; Day 17 post-adjuvant): 2.0 ± 0.0
- Percent increase in foot volume relative to day 10 post-adjuvant (left hind-limb) ([1]; Day 21 post-adjuvant): −1.4 ± 6.1%
- Percent increase in foot volume relative to day 10 post-adjuvant (right hind-limb) ([1]; Day 21 post-adjuvant): −5.9 ± 4.1%
- Percent increase in foot volume relative to pre-adjuvant (left hind-limb) ([1]; Day 21 post-adjuvant): 20.93 ± 7.3%
- Percent increase in foot volume relative to pre-adjuvant (right hind-limb) ([1]; Day 21 post-adjuvant): 38.93 ± 9.5%
- Redness scores (left hind-limb) ([1]; Day 21 post-adjuvant): 0.6 ± 0.6
- Redness scores (right hind-limb) ([1]; Day 21 post-adjuvant): 1.4 ± 0.4
- Scores of swelling in knuckle joints (left hind-limb) ([1]; Day 21 post-adjuvant): 0.4 ± 0.4
- Scores of swelling in knuckle joints (right hind-limb) ([1]; Day 21 post-adjuvant): 0.6 ± 0.6
- Scores of swelling in the instep (left hind-limb) ([1]; Day 21 post-adjuvant): 0.4 ± 0.4
- Scores of swelling in the instep (right hind-limb) ([1]; Day 21 post-adjuvant): 1.4 ± 0.4
- Total scores (left hind-limb) ([1]; Day 21 post-adjuvant): 1.4 ± 1.8
- Total scores (right hind-limb) ([1]; Day 21 post-adjuvant): 3.4 ± 1.8
- Concentrations of TNF-α in plasma (TNF-α in plasma): N.D (N.D.: below detection limit)
- Concentrations of IL-1β in plasma (IL-1β in plasma): 13.0 ± 2.5 pg/mL

Compound: PGLDHF [SP3, PGLDHF]
- solubility [2]: ≥ 10000 µg/mL

Compound: PGLDKF [SP1, PGLDKF]
- solubility [2]: ≥ 10000 µg/mL

Compound: PGLDRF [SP2, PGLDRF]
- solubility [2]: ≥ 10000 µg/mL

Compound: PGLEHF [SP6, PGLEHF]
- solubility [2]: ≥ 10000 µg/mL

Compound: PGLEKF [SP4, PGLEKF]
- solubility [2]: ≥ 10000 µg/mL

Compound: PGLERF [SP5, PGLERF]
- solubility [2]: ≥ 10000 µg/mL

Compound: PGLSSF [SP7, PGLSSF]
- solubility [2]: ≥ 10000 µg/mL

Compound: PGLYYF [R1, PGLYYF]
- solubility [2]: < 1000 µg/mL
